Data on 30 compounds can be found in patent publication US6410740B1, “Heterocyclylmethyl-substituted pyrazol derivatives” (Bayer Aktiengesellschaft, priority 1996, dated 2002).

Assay [1] relates to rabbit aortic rings precontracted with phenylephrine. As to the kind of experiment: Vessel-relaxing action in vitro on isolated aortic rings precontracted with phenylephrine. Conditions: rabbit aorta rings, phenylephrine contraction. The method, then: Vessel-relaxing Action in vitro
Rings 1.5 mm wide of an aorta isolated from a rabbit are introduced individually, under pretension, in 5 ml organ baths with Krebs-Henseleit solution warmed to 37° C. and gassed with carbogen. The contraction force is amplified and digitalized and recorded in parallel on a line recorder. To generate a contraction, phenylephrine is added cumulatively to the bath in an increasing concentration.
After several control cycles, the substance to be investigated is investigated in each further pass in each case in an increasing dosage, and a comparison is made with the level of the contraction achieved in the last preliminary pass. The concentration necessary to reduce the level of the control value by 50% (IC50) is calculated from this. The standard application volume is 5 μl.
After several control cycles, the substance to be investigated is investigated in each further pass in each case in an increasing dosage, and a comparison is made with the level of the contraction achieved in the last preliminary pass. The concentration necessary to reduce the level of the control value by 50% (IC50) is calculated from this.
The standard application volume is 5 μl.

Assay [2] concerns the target T1, soluble guanylate cyclase (Sus scrofa, UniProt A0A4X1U7N1+A0ACM8Q7I6).
T1 construct: endogenous in cells; host or cells: primary endothelial cells from pig aorta
T1 sequence (A0A4X1U7N1 1-619): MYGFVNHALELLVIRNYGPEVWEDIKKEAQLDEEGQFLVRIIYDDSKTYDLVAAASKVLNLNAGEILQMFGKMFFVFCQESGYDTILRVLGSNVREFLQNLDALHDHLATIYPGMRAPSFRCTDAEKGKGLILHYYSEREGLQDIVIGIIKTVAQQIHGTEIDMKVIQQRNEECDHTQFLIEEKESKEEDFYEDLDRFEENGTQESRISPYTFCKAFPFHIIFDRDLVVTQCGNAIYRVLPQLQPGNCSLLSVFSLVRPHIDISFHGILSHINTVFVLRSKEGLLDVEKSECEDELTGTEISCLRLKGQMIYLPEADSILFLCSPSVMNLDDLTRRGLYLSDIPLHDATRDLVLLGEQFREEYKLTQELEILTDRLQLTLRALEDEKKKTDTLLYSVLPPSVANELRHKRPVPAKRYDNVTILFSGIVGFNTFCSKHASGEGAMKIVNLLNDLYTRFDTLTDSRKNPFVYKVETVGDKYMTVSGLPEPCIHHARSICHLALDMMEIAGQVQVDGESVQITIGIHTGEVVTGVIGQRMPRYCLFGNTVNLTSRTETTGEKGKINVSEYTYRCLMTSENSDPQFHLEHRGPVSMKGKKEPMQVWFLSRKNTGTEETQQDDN
T1 sequence (A0ACM8Q7I6 1-688): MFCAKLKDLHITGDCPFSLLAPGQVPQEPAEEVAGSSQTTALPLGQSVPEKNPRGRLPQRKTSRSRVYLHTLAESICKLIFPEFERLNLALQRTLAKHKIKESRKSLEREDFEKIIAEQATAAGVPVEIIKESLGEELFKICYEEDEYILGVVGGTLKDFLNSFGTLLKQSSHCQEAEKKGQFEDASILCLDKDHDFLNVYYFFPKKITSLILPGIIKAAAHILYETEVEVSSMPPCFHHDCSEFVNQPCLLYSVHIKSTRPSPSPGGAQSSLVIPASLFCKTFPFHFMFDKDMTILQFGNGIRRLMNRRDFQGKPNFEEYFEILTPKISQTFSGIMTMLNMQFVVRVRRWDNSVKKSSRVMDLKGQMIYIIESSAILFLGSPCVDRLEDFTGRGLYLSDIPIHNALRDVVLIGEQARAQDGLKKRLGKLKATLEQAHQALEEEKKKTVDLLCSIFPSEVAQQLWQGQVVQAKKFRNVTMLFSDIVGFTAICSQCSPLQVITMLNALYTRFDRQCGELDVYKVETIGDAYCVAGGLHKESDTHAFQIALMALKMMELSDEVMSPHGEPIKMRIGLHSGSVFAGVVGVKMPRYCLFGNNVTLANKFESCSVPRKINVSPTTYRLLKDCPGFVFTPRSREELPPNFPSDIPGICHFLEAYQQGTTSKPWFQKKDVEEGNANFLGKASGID
As to the kind of experiment: Stimulation of soluble guanylate cyclase in primary endothelial cells (intracellular cGMP, radioimmunological). In kind it is cell-based. The following applies: test substance 1 μM, 10-minute incubation, primary pig aortic endothelial cells, with or without SNP 1 μM (not stated which); for activation at 1 µM: 10 min, read-out: % increase in cGMP. The method, then: Stimulation of Soluble Guanylate Cyclase in Primary Endothelial Cells
(§1) Primary endothelial cells were isolated from pig aortas by treatment with collagenase solution. The cells were then cultured in a culture medium until confluence was reached. For the investigations, the cells were subjected to passaging, sown in cell culture plates and subcultured until confluence was reached. To stimulate the endothelial guanylate cyclase, the culture medium was suctioned off and the cells were washed once with Ringer's solution and incubated in stimulation buffer with or without an NO donor (sodium nitroprusside, SNP, 1 μM). Thereafter, the test substances (final concentration 1 μM) were pipetted onto the cells. At the end of the 10-minute incubation period, the buffered solution was suctioned off and the cells were lysed at −20° C. for 16 hours. The intracellular cGMP was then determined radioimmunologically.
as §1, with “sucked” for “suctioned”
as §1, with “without” for “without an”, “buffer” for “buffered”

The mark [3] stands for this setting: Oryctolagus cuniculus, embodiment III.
The mark [4] stands for this setting: Oryctolagus cuniculus, embodiment II.
Setting [5] is: Oryctolagus cuniculus, iv, embodiment IV.

Read-outs that look alike come from different tables or passages of the source.

For `OCc1cnc(-c2nn(Cc3ccccc3F)c3ccccc23)s1` [III-95], the midpoint of inhibition in assay [1] (setting [3]), the IC50, lay at 2.4 µM. For `Cc1cc(Cl)cc(-c2nn(Cc3ccccc3)c3ccccc23)n1` [II-61], the IC50 (in general, the concentration at which inhibition is half-maximal) in assay [1] (setting [4]) was greater than 30 µM.

`CCc1coc(-c2nn(Cc3ccccc3)c3ccccc23)n1` [III-88] returned a 50% inhibitory concentration (IC50) in assay [1] (setting [3]) of 7.1 µM. In assay [1] (setting [5]), `CC(O)c1ccc(-c2nn(Cc3ccccc3)c3ccccc23)o1` (centres unmarked) [IV-139, 1-[5-(1-Benzylindazol-3-yl)-furan-2-yl]-ethanol] yielded a concentration for half-maximal inhibition (IC50) of 12 µM. The activation at 1 µM in assay [2] (embodiment IV) came out at 723%. As to `Cc1nc(-c2nn(Cc3ccccc3)c3ccccc23)nc(C)c1C` [II-46], the activation at 1 µM in assay [2] (embodiment II) came to 390%.

For the compound `N#Cc1ccccc1Cn1nc(-c2ncccn2)c2ccccc21` [II-41], half-maximal inhibition in assay [1] (setting [4]) (IC50) required 13 µM. For the same compound, the activation at 1 µM in assay [2] (embodiment II) turned out to be 557%.

As for `Cc1nc(-c2nn(Cc3ccccc3)c3ccccc23)nc(C)c1Cl` [II-47], the activation at 1 µM in assay [2] (embodiment II) worked out at 240%. As to `Cc1cc(-c2nn(Cc3ccccc3)c3ccccc23)oc1CO` [IV-179], in assay [1] (setting [5]), the half-inhibitory concentration (IC50) came out at 11 µM. Besides, in assay [2] (embodiment IV), the activation at 1 µM was determined as 921%.

With `CC(=O)OCc1nnc(-c2nn(Cc3ccccc3F)c3ccccc23)o1` [III-78], the IC50 in assay [1] (setting [3]) came out at 10 µM. Moreover, the activation at 1 µM in assay [2] (embodiment III) worked out at 223%. For the compound `Cc1ccnc(-c2nn(Cc3ccccc3)c3ccccc23)n1` [II-42], in assay [1] (setting [4]), the half-inhibitory concentration (IC50) turned out to be 10 µM. The activation at 1 µM in assay [2] (embodiment II) was 611%. Compound `O/N=C/c1ccc(-c2nn(Cc3ccccc3)c3ccccc23)o1` [IV-153] gave a half-maximal inhibitory concentration (IC50) in assay [1] (setting [5]) of 9.1 µM. For the same compound, in assay [2] (embodiment IV), the activation at 1 µM was 341%. In assay [1] (setting [4]), `Cc1cccc(-c2nn(Cc3ccccc3)c3ccccc23)n1` [II-59] returned an IC50 greater than 33 µM. The activation at 1 µM in assay [2] (embodiment II) stood at 268%. As for `Fc1ccccc1Cn1nc(-c2ncccn2)c2ccccc21` [II-40], the IC50 in assay [1] (setting [4]) is 24 µM. For the same compound, the activation at 1 µM in assay [2] (embodiment II) is greater than 1000%. On to `O=Cc1ccc(-c2nn(Cc3ccccc3)c3ccccc23)o1` [IV-138, 1-Benzyl-3-(5-formylfuran-2-yl)-indazole], for which the activation at 1 µM in assay [2] (embodiment IV) amounted to 324%.

As to `OCc1nnc(-c2nn(Cc3ccccc3F)c3ccccc23)o1` [III-76], the IC50 in assay [1] (embodiment III) amounted to 7.4 µM. In assay [2] (embodiment III), the “% increase in cGMP” value is reported as 397%.

`OCCNc1nccc(-c2nn(Cc3ccccc3)c3ccccc23)n1` [II-52] had an IC50 in assay [1] (setting [4]) of 14 µM. Moreover, the activation at 1 µM in assay [2] (embodiment II) amounted to 397%.

Consider `CC(=O)OCc1oc(-c2nn(Cc3ccccc3)c3ccccc23)nc1C` [III-77], for which the IC50 in assay [1] (setting [3]) came to 8.3 µM. Moreover, the activation at 1 µM in assay [2] (embodiment III) is greater than 1000%. Compound `c1ccc(Cn2nc(-c3cnccn3)c3ccccc32)cc1` [II-55] had an IC50 in assay [1] (setting [4]) greater than 35 µM.

With `COCc1oc(-c2nn(Cc3ccccc3)c3ccccc23)nc1C` [III-90], the IC50 in assay [1] (setting [3]) is 4.1 µM.

Regarding `CCOC(=O)c1coc(-c2nn(Cc3ccccc3)c3ccccc23)n1` [III-93], the activation at 1 µM in assay [2] (embodiment III) was 271%. On to `Cc1cc(C)c(C#N)c(-c2nn(Cc3ccccc3)c3ccccc23)n1` [II-60], for which, in assay [1] (setting [4]), the half-maximal inhibitory concentration (IC50) is greater than 30 µM. Take `Cc1cnc(-c2nn(Cc3ccccc3F)c3ccccc23)nc1C` [II-43]: the activation at 1 µM in assay [2] (embodiment II) was greater than 1000%. For `CCOCc1oc(-c2nn(Cc3ccccc3)c3ccccc23)nc1C` [III-91], the activation at 1 µM in assay [2] (embodiment III) was found to be 479%. In the case of `Cc1cnc(-c2nn(Cc3ccccc3C#N)c3ccccc23)nc1C` [II-44], the activation at 1 µM in assay [2] (embodiment II) was greater than 1000%.

For the compound `N#Cc1cccc(Cn2nc(-c3ccc(CO)o3)c3ccccc32)c1` [IV-166], in assay [1] (setting [5]), 18 µM corresponded to half-maximal inhibition (IC50). Consider `O=[N+]([O-])c1ccc(-c2nn(Cc3ccccc3)c3ccccc23)o1` [IV-143, 1-Benzyl-3-(5-nitrofuran-2-yl)-indazole], for which the activation at 1 µM in assay [2] (embodiment IV) was greater than 1000%. For the compound `c1ccc(Cn2nc(-c3ccccn3)c3ccccc32)cc1` [II-58], the activation at 1 µM in assay [2] (embodiment II) was found to be 271%. Regarding `CCOC(OCC)c1nc(-c2nn(Cc3ccccc3)c3ccccc23)ncc1C` [II-45], the activation at 1 µM in assay [2] (embodiment II) is 326%. Compound `Cc1cc(-c2nn(Cc3ccccc3)c3ccccc23)nc(Cl)n1` [II-51] returned an IC50 in assay [1] (setting [4]) greater than 30 µM.

For `OCc1cnc(-c2nn(Cc3ccccc3)c3ccccc23)s1` [III-92], the activation at 1 µM in assay [2] (embodiment III) amounted to 319%.
